From patent US20250312469A1 (CANGET BIOTEKPHARMA, priority 2024, published 2025)
Values joined by “and” are separate entries in the source; they are usually repeats but may differ in a detail not shown here. Equal entries are not always repeated.

How the values were obtained:
[1] = tested on: L5178Y TK+/− mouse lymphoma cells; assay: Mouse Lymphoma Assay (MLA); conditions: for Avg. MF (Mutant Frequency) / Avg. SG: 24 h treatment, −S9
Description: The cells were prepared in Fischer's or RPMI media supplemented with 10% heat-inactivated horse serum, penicillin-streptomycin, Lglutamine, sodium pyruvate and Pluronic F68. In the initial assay, prior to use in the test, the culture was purged of preexisting TK−/− mutations by exposure to THMG treated medium for 1 day, followed by a transfer to THG medium for 1 to 2 days. This was performed 5 to 8 days prior to testing. In the expanded assay a vial of frozen cells was thawed and used within 5 to 8 days of growth. No washing was needed because the cells were purged of preexisting TK−/− mutations by exposure to THMG treated medium for 1 day and then THG medium for 1 day prior to freezing. […] Colonies were counted using an automated colony counter or manually. After 4 or 24 hours of exposure, the cells were grown for recovery and expression for approximately 48 hours before plated in TFT cloning media. A second set of plates were prepared without TFT to assess viability of cells following treatment. […] Colonies observed on the TFT plate were defined as small or large colonies. […] (3) Of note, the metabolic activation system in this assay consisted of a rat liver homogenate (S-9 microsomal fraction), which was delivered to the test system in the presence of a core mix consisting of NADP and cofactors for NADPH-supported oxidation. The S9 was prepared using the following recipe (per treatment tube); 1 mL of 20 mg/mL S9, 32 mg of NADP, 60 mg of isocitric acid, 40 μL of calcium chloride (CaCl2) and 3.0 mL of cell cultural media. All treatments were performed in duplicate. The treatment tubes were placed in a CO2 incubator at 37±1° C. with continuous agitation.

CYP1A2 mRNA = assay: CYP induction (mRNA) in fresh human hepatocytes; conditions: human, 3 days, 50 µM
From the text: (2) CYP positive inducers (Table 58a) and Williams' Medium E (WME) were purchased from Sigma-Aldrich (St. Louis, MO, USA). Dulbecco's phosphate-buffered saline (DPBS, pH 7.4) was purchased from Invitrogen (Carlsbad, CA, USA). Hepatocyte culture medium (serum-free) for CYP induction was purchased from XenoTech (catalog #K2300, Lenexa, KS, USA). The CellTiter 96 AQueous ONE Solution Cell Proliferation Assay was obtained from Promega (Madison, WI, USA). All other chemicals and reagents were of analytical grade or higher. (3) Fresh human hepatocytes (Table 58b) seeded at ˜0.15 million cells/well in 48-well plates (˜0.75 million cells/mL) were purchased from Thermo Fisher Scientific (Grand Island, NY, USA) and BioreclamationIVT (Baltimore, MD, USA).
(§1) Vehicle controls were treated in parallel with hepatocyte culture medium. […] (2) After the CYP induction treatment, the cells were used for a cell viability assay. […] The absorbance of formazan, which is proportional to the number of viable cells, was measured spectrophotometrically using the CellTiter 96 AQueous ONE Solution Cell Proliferation Assay. […] (3) Total RNA was isolated from the treated cells using the RNeasy mini kit (Qiagen, Valencia, CA, USA) and treated with RNase-free DNase (Qiagen) following the manufacturer's protocols. The concentration of RNA was determined using a Qubit Fluorometer with a Qubit RNA HS assay kit (Invitrogen). cDNA was synthesized from up to 1 μg of the total RNA harvested from the cells using a QuantiTect RT kit (Qiagen). Analysis of gene expression by qPCR was performed using the LightCycler 480 System (Roche Diagnostics Corporation, Indianapolis, IN, USA).

human hepatocytes = assay: Cell viability (MTS) after CYP induction treatment; conditions: donor 2, control inducers (OME, PB, RIF)
Description: as §1

SMILES: COS(C)(=O)=O [methyl methanesulfonate (MMS), methyl methanesulfonate]
- Average SG ([1]; mouse, 24 h, 5 μg/mL): 48.2
- Avg. % of IMF Small Colony ([1]; mouse, 24 h, 5 μg/mL): 52.4%
- Avg. IMF (Induced Mutant Frequency) ([1]; mouse, 24 h, 5 μg/mL): 458 mutants/1×10^6 cells
- Avg. IMF Small Colony ([1]; mouse, 24 h, 5 μg/mL): 240 mutants/1×10^6 cells
- Avg. RTG (Relative Total Growth) ([1]; mouse, 24 h, 5 μg/mL): 38.7%
- Relative Suspension Growth (%) ([1]; mouse, 24 h, 5 μg/mL): 62.5%
- Average SG ([1]; mouse, 24 h, 8 μg/mL): 26.2
- Avg. % of IMF Small Colony ([1]; mouse, 24 h, 8 μg/mL): 54.7%
- Avg. IMF (Induced Mutant Frequency) ([1]; mouse, 24 h, 8 μg/mL): 750 mutants/1×10^6 cells
- Avg. IMF Small Colony ([1]; mouse, 24 h, 8 μg/mL): 417 mutants/1×10^6 cells
- Avg. RTG (Relative Total Growth) ([1]; mouse, 24 h, 8 μg/mL): 15.5%

SMILES: O=P1(N(CCCl)CCCl)NCCCO1 (centres unmarked) [cyclophosphamide (CP), cyclophosphamide]
- Average SG ([1]; 4 h, +S9, 15 μg/mL): 7.3
- Day 1 Growth Cell Conc. ([1]; 4 h, +S9, 15 μg/mL): 4.79E+05 Cell/mL and 5.44E+05 Cell/mL
- Day 2 Growth Cell Conc. ([1]; 4 h, +S9, 15 μg/mL): 1.29E+06 Cell/mL and 1.30E+06 Cell/mL
- Relative Suspension Growth (%) ([1]; 4 h, +S9, 15 μg/mL): 52.7% and 58.8%
- Suspension Growth (SG) ([1]; 4 h, +S9, 15 μg/mL): 5.9 and 7.7
- Average SG ([1]; 4 h, +S9, 17.5 μg/mL): 4.9
- Day 1 Growth Cell Conc. ([1]; 4 h, +S9, 17.5 μg/mL): 3.20E+05 Cell/mL and 3.86E+05 Cell/mL
- Day 2 Growth Cell Conc. ([1]; 4 h, +S9, 17.5 μg/mL): 1.14E+06 Cell/mL and 1.25E+06 Cell/mL
- Relative Suspension Growth (%) ([1]; 4 h, +S9, 17.5 μg/mL): 32.1% and 42.0%
- Suspension Growth (SG) ([1]; 4 h, +S9, 17.5 μg/mL): 4.2 and 5.5
- Avg. % of IMF Small Colony ([1]; 4 h summary, +S9, 15 μg/mL): 62.1%
- Avg. IMF ([1]; 4 h summary, +S9, 15 μg/mL): 1000 ×10^−6
- Avg. IMF Small Colony ([1]; 4 h summary, +S9, 15 μg/mL): 621 ×10^−6
- Avg. RTG ([1]; 4 h summary, +S9, 15 μg/mL): 21.6%
- Avg. % of IMF Small Colony ([1]; 4 h summary, +S9, 17.5 μg/mL): 58.6%
- Avg. IMF ([1]; 4 h summary, +S9, 17.5 μg/mL): 1513 ×10^−6
- Avg. IMF Small Colony ([1]; 4 h summary, +S9, 17.5 μg/mL): 880 ×10^−6
- Avg. RTG ([1]; 4 h summary, +S9, 17.5 μg/mL): 6.7%

SMILES: COc1ccc2[nH]c([S+]([O-])Cc3ncc(C)c(OC)c3C)nc2c1 (centres unmarked) [Omeprazole (OME), Omeprazole, reference compound]
- % of OME-treated Cells (CYP1A2 mRNA): 100%

SMILES: CO[C@H]1/C=C/O[C@@]2(C)Oc3c(C)c(O)c4c(O)c(c(/C=N/N5CCN(C)CC5)c(O)c4c3C2=O)NC(=O)/C(C)=C\C=C\[C@H](C)[C@H](O)[C@@H](C)[C@@H](O)[C@@H](C)[C@H](OC(C)=O)[C@@H]1C [Rifampicin (RIF), Rifampicin, reference compound]
- Formazan Absorbance Mean (human hepatocytes): 1.37

SMILES: CC[C@@]1(O)C(=O)OCc2c1cc1n(c2=O)Cc2cc3cc4c(cc3nc2-1)OCO4 [Test Article]
- Avg. MF (Mutant Frequency) ([1]; Test Article 0.1 uM): 345 mutants/1×10^6 cells
- Avg. SG ([1]; Test Article 0.1 uM): 29.1
- Avg. MF (Mutant Frequency) ([1]; Test Article .01 uM): 125 mutants/1×10^6 cells
- Avg. SG ([1]; Test Article .01 uM): 66.2
